Source: US6355608B1, “Detergent composition” (Shiseido Co., Ltd., priority 1998, dated 2002)

Tests used:
[1] = Lathering/foaming test: foam volume in a mixer with artificial dirt; format: physicochemical; conditions: mixtures of N-methyl taurate laurate and sodium laurate, total 100 mmol/L; 400 ml with 2g artificial dirt, stirred 60 seconds
[2] = Foaming test with the shaking method; format: physicochemical
Procedure: (§1) 0.5 wt % of each sample in Table 1 was dissolved in ion exchanged water with 70 ppm calcium chloride already dissolved in it. […] This solution was kept at 30° C. put into a Nessler's tube with an inner diameter of 3 cm and a height of 20 cm equipped with a sliding plug, and then tilted 90 degrees every second using a pendulum type shaker. After one minute, the sample was taken out of the shaker and the foam height, the foam film thickness and the foam density were measured. The time required for the foam height to be reduced to a half of the original height was also measured. The foam film thickness was measured by taking a photograph of the foam using a microscope at 100 times magnification and calculating the average value on the photograph. The foam density was obtained by sampling 10 ml of the foam and measuring its weight.
as §1, with “Table 6” for “Table 1”, “30° C.,” for “30° C.”
as §1, with “Table 11” for “Table 1”, “30° C.,” for “30° C.”
as §1, with “sample” for “sample in Table 1”, “C.,” for “C.”, “weight. […]” for “weight.”

| Compound | Foaming (in words) ([2]; pH 7) | Foaming (in words) ([2]; pH 4) | also measured |
| --- | --- | --- | --- |
| CNCCS(=O)(=O)O [N-methyl taurine] |  |  | Lathering/foaming ability (foam volume, FIG. 6) [1]: good lathering/foaming ability |
| Magnesium laurate [Control sample 3] | harder to foam |  |  |
| Potassium hydroxylaurate [Control sample 2] | harder to foam |  |  |
| Potassium hydroxylauryl ether carboxylate [Control sample 2] |  | harder to foam |  |
| Sodium hydroxylaurate [Control sample 1] | harder to foam |  |  |
| Sodium hydroxylauryl ether carboxylate [Control sample 1] |  | harder to foam |  |
